# Literature values, collected in patent publication US20040157330A1, “Compositions and methods for targeted biological delivery of molecular carriers” (Arizeke Pharmaceuticals, Inc., priority 2003, published 2004).
# Biological target: human transferrin receptor (Homo sapiens, UniProt P02786)
# Conditions: for binding to the human transferrin receptor: without inhibiting transferrin binding
# Sequence of human transferrin receptor (P02786 whole entry): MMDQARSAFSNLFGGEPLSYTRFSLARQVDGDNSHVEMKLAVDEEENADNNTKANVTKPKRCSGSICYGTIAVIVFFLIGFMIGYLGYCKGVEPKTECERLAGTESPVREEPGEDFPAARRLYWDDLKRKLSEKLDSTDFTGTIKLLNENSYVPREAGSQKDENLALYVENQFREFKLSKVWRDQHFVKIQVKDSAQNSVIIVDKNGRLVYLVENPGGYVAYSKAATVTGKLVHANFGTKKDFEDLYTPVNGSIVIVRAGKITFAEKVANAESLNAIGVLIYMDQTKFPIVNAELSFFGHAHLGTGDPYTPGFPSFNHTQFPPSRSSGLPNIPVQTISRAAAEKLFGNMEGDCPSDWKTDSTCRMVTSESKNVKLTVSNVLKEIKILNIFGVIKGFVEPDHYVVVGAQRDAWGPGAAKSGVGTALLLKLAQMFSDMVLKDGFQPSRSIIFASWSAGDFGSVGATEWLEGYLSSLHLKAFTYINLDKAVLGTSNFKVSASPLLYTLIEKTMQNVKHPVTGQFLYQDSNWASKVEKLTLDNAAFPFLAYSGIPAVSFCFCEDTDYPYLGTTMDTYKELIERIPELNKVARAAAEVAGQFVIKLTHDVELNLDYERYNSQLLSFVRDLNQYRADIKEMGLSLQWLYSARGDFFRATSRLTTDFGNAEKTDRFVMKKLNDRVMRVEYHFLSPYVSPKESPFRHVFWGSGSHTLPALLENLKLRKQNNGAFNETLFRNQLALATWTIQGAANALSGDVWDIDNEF
binding to the human transferrin receptor,"Kd (calculated, similar to the binding affinity of transferrin)",Substance
bind specifically,–,HAIYPRH
bind specifically,15 nM,THRPPMWSPVWP
